This is an account of results in patent US5552411A, “Sulfonylquinolines as central nervous system and cardiovascular agents” (Warner-Lambert Company, priority 1995, dated 1996).

Read-outs that look alike come from different tables or passages of the source.

The target of assay [1] is T1, Human Neuropeptide Y1 Receptors (Homo sapiens, UniProt P25929).
T1 construct: 50 μL SK-N-MC preparation containing 50 μg/tube membrane protein; host or cells: SK-N-MC human neuroblastoma cells (membranes)
T1 sequence (P25929 1-384): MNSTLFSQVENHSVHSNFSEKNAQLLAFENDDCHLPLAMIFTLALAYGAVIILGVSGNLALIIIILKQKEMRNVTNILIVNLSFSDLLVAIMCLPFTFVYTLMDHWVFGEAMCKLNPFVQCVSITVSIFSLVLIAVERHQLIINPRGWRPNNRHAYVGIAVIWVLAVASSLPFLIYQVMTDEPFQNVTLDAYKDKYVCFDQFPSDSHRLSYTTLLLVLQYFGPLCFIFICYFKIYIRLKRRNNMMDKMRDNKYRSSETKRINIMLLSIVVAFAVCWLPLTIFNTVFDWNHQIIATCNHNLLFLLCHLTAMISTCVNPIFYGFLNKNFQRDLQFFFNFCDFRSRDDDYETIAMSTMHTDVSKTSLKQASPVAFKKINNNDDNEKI
Nature of the assay: Receptor binding: inhibition of [^125 I]Peptide YY binding to human neuropeptide Y1 receptors (SK-N-MC membranes). The protocol:
The compounds of Formula I are valuable neuropeptide Y1 antagonists. The compounds of Formula I were tested for their ability to bind to the neuropeptide Y1 receptor subtype as measured by their inhibition of [^125 I]Peptide YY to human NPY1 receptors.
Human neuroblastoma cells, SK-N-MC, obtained from American Type Culture Collection were grown in Dulbecco's modified Eagle medium (Gibco) containing 10% fetal bovine serum and 100 units per mL/100 μg/mL penicillin/streptomycin (Gibco). After cells were confluent, growth media was replaced with fresh media and cells were allowed to continue growing for an additional 24 hours. Cells were then harvested in a buffer consisting of the following: 25 mM Tris(hydroxymethyl)amino methane (Tris), pH 7.4, 6 mM MgCl2, 250 μg/mL bacitracin, 250 μg/mL aprotinin, 250 μg/mL leupeptin, 250 μg/mL 4-(2-aminoethyl)-benzenesulfonylfluoride hydrochloride (Peflabloc) (Pentapharm AG). Growth media was removed and cells were lifted from the flasks with Dulbecco's phosphate buffered saline (D-PBS) containing 0.02% ethylenediaminetetraacetic acid (EDTA). Cells were pelleted and homogenized using a polytron, and broken membranes were pelleted by centrifugation at 18,000 rpm for 10 minutes at 4° C. The pelleted membranes were resuspended in the above buffer and frozen at […].
D-PBS (Gibco) pH 7.4, containing 0.5 g/L bacitracin and […] bovine serum albumin (BSA), was used in the preparation of compound and radiolabel. Each assay tube consisted of the following: […] of compound or buffer, 100 μL[^125 I]-PYY (Peptide YY) (30 pM), and 50 μL SK-N-MC preparation containing 50 μg/tube membrane protein for a total volume of 250 μL/tube. Non-specific binding was defined by the addition of 300 nM final concentration of neuropeptide Y. After addition of all reagents, tubes were shaken while incubating for 60 minutes at room temperature. The assay was terminated by filtering through a Whatman GF/C filter previously saturated with 0.1% polyethylenimine in 10 mM Tris, pH 7.5 containing 0.1% BSA. Filters were punched from the filter mat, placed in tubes, and counted for 1 minute using a gamma counter. The Ki was determined using the Graph PAD data analysis software program.

The next assay has as its system rats. The conditions noted are these: administration into the central nervous system; cited from earlier work.
Where [2] appears, read: 30 pM [^125 I]-PYY, SK-N-MC membranes, 60 minutes, room temperature, pH 7.4, read-out: Inhibition of [^125 I]Peptide YY Binding to Human Neuropeptide Y1 Receptors Ki.

By Ki is commonly meant a measure of affinity in units of concentration, obtained from inhibition or displacement. Turning to `Nc1cc(S(=O)(=O)c2ccccc2)c([N+](=O)[O-])c2cccnc12` [Example 1, 6-Benzenesulfonyl-5-nitro-quinolin-8-ylamine], the Ki in assay [1] (setting [2]) was found to be 297 nM.
As for `Nc1cc(S(=O)(=O)c2ccc(Cl)cc2)c([N+](=O)[O-])c2cccnc12` [Example 2, 6-(4-Chloro-benzenesulfonyl)-5-nitro-quinolin-8-ylamine], the inhibition constant (Ki) in assay [1] (setting [2]) amounted to 1750 nM.
With `COc1ccc(S(=O)(=O)c2cc(N)c3ncccc3c2[N+](=O)[O-])cc1` [Example 3, 6-(4-Methoxy-benzenesulfonyl)-5-nitro-quinolin-8-ylamine], in assay [1] (setting [2]), the Ki was determined as 1140 nM.
As to `Cc1ccc(S(=O)(=O)c2cc(N)c3ncccc3c2[N+](=O)[O-])cc1` [Example 4, 5-Nitro-6-(toluene-4-sulfonyl)-quinolin-8-ylamine], the inhibitory constant (Ki) in assay [1] (setting [2]) is 594 nM.
As to `Nc1cc(S(=O)(=O)c2ccc3ccccc3c2)c([N+](=O)[O-])c2cccnc12` [Example 5, 6-(Naphthalene-2-sulfonyl)-5-nitro-quinolin-8-ylamine], in assay [1] (setting [2]), the Ki was found to be 1200 nM.
Consider `Cc1ccc(C)c(S(=O)(=O)c2cc(N)c3ncccc3c2[N+](=O)[O-])c1` [Example 6, 6-(2,5-Dimethyl-benzenesulfonyl)-5-nitro-quinolin-8-ylamine], for which the Ki in assay [1] (setting [2]) was found to be 148 nM.
For the compound `CC(C)(C)c1ccc(S(=O)(=O)c2cc(N)c3ncccc3c2[N+](=O)[O-])cc1` [Example 7, 6-(4-tert-Butyl-benzenesulfonyl)-5-nitro-quinolin-8-ylamine], in assay [1] (setting [2]), the Ki came out at 3200 nM.
`Nc1cc(S(=O)(=O)c2ccc([N+](=O)[O-])cc2)c([N+](=O)[O-])c2cccnc12` [Example 8, 5-Nitro-6-(4-nitro-benzenesulfonyl)-quinolin-8-ylamine] came in with a Ki in assay [1] of 1000 nM.
As to `Cc1cccc(S(=O)(=O)c2cc(N)c3ncccc3c2[N+](=O)[O-])c1` [Example 9, 5-Nitro-6-(toluene-3-sulfonyl)-quinolin-8-ylamine], the inhibition constant Ki in assay [1] (setting [2]) came to 373 nM.
As for `Nc1cc(S(=O)(=O)c2ccc(O)cc2)c([N+](=O)[O-])c2cccnc12` [Example 10, 4-(8-Amino-5-nitro-quinoline-6-sulfonyl)-phenol], the Ki in assay [1] (setting [2]) was 136 nM.
Still for that read-out and setting: the same measure for `N#Cc1ccc(S(=O)(=O)c2cc(N)c3ncccc3c2[N+](=O)[O-])cc1` [Example 11, 4-(8-Amino-5-nitro-quinoline-6-sulfonyl)-benzonitrile]: 854 nM; for `Cc1ccccc1S(=O)(=O)c1cc(N)c2ncccc2c1[N+](=O)[O-]` [Example 12, 5-Nitro-6-(toluene-2-sulfonyl)-quinolin-8-ylamine]: 119 nM; for `Nc1cc(S(=O)(=O)c2ccccc2Cl)c([N+](=O)[O-])c2cccnc12` [Example 13, 6-(2-Chloro-benzenesulfonyl)-5-nitro-quinolin-8-ylamine]: 93 nM.
In the case of `Cc1cccc(C)c1S(=O)(=O)c1cc(N)c2ncccc2c1[N+](=O)[O-]` [Example 14, 6-(2,6-Dimethyl-benzenesulfonyl)-5-nitro-quinolin-8-ylamine], the Ki in assay [1] (setting [2]) was found to be 295 nM.
The same measure, in the same setting: the same measure for `Nc1cc(S(=O)(=O)c2cccc(Cl)c2)c([N+](=O)[O-])c2cccnc12` [Example 15, 6-(3-Chloro-benzenesulfonyl)-5-nitro-quinolin-8-ylamine]: 892 nM; for `Nc1cc(S(=O)(=O)c2ccc(F)cc2)c([N+](=O)[O-])c2cccnc12` [Example 16, 6-(4-Fluoro-benzenesulfonyl)-5-nitro-quinolin-8-ylamine]: 603 nM; for `COc1cccc(S(=O)(=O)c2cc(N)c3ncccc3c2[N+](=O)[O-])c1` [Example 17, 6-(3-Methoxy-benzenesulfonyl)-5-nitro-quinolin-8-ylamine]: 311 nM.
As to `CCc1ccccc1S(=O)(=O)c1cc(N)c2ncccc2c1[N+](=O)[O-]` [Example 18, 6-(2-Ethyl-benzenesulfonyl)-5-nitro-quinolin-8-ylamine], the Ki in assay [1] (setting [2]) came out at 129 nM.
For the compound `CC(C)c1ccccc1S(=O)(=O)c1cc(N)c2ncccc2c1[N+](=O)[O-]` [Example 19, 6-(2-Isopropyl-benzenesulfonyl)-5-nitro-quinolin-8-ylamine], in assay [1] (setting [2]), the Ki stood at 48 nM.
Same read-out and setting: the same measure for `Nc1cc(S(=O)(=O)c2cccc3ccccc23)c([N+](=O)[O-])c2cccnc12` [Example 20, 6-(Naphthalene-1-sulfonyl)-5-nitro-quinolin-8-ylamine]: 46 nM; for `COc1ccccc1S(=O)(=O)c1cc(N)c2ncccc2c1[N+](=O)[O-]` [Example 21, 6-(2-Methoxy-benzenesulfonyl)-5-nitro-quinolin-8-ylamine]: 490 nM.
Consider `Cc1ccc(S(=O)(=O)c2cc(N)c3ncccc3c2[N+](=O)[O-])c(C)c1` [Example 22, 6-(2,4-Dimethyl-benzenesulfonyl)-5-nitro-quinolin-8-ylamine], for which, in assay [1] (setting [2]), the Ki turned out to be 222 nM.
In the case of `Nc1cc(S(=O)(=O)c2c(Cl)cccc2Cl)c([N+](=O)[O-])c2cccnc12` [Example 23, 6-(2,6-Dichloro-benzenesulfonyl)-5-nitro-quinolin-8-ylamine], the Ki in assay [1] (setting [2]) is 273 nM.
Consider `Nc1cc(S(=O)(=O)c2ccccc2Br)c([N+](=O)[O-])c2cccnc12` [Example 24, 6-(2-Bromo-benzenesulfonyl)-5-nitro-quinolin-8-ylamine], for which the inhibition constant (Ki) in assay [1] (setting [2]) stood at 234 nM.
With `CC(=O)Nc1ccccc1S(=O)(=O)c1cc(N)c2ncccc2c1[N+](=O)[O-]` [Example 25, N-[2-(8-Amino-5-nitro-quinoline-6-sulfonyl)-phenyl]-acetamide], the Ki in assay [1] (setting [2]) came out at 590 nM.
Take `Nc1cc(S(=O)(=O)c2cccc(Cl)c2Cl)c([N+](=O)[O-])c2cccnc12` [Example 26, 6-(2,3-Dichloro-benzenesulfonyl)-5-nitro-quinolin-8-ylamine]: the inhibition constant Ki in assay [1] (setting [2]) stood at 93 nM.
On to `Nc1cc(S(=O)(=O)c2ccccc2F)c([N+](=O)[O-])c2cccnc12` [Example 27, 6-(2-Fluoro-benzenesulfonyl)-5-nitro-quinolin-8-ylamine], for which the Ki in assay [1] (setting [2]) stood at 58 nM.
The same measure, in the same setting: the same measure for `CC(C)c1cccc(C(C)C)c1S(=O)(=O)c1cc(N)c2ncccc2c1[N+](=O)[O-]` [Example 28, 6-(2,6-Diisopropyl-benzenesulfonyl)-5-nitro-quinolin-8-ylamine]: 48 nM; for `Nc1cc(S(=O)(=O)c2ccccc2C(F)(F)F)c([N+](=O)[O-])c2cccnc12` [Example 29, 5-Nitro-6-(2-trifluoromethyl-benzenesulfonyl)-quinolin-8-ylamine]: 84 nM.
Same read-out and setting: the same measure for `Nc1cc(S(=O)(=O)c2cc(Cl)ccc2Cl)c([N+](=O)[O-])c2cccnc12` [Example 30, 6-(2,5-Dichloro-benzenesulfonyl)-5-nitro-quinolin-8-ylamine]: 283 nM; for `CC(C)(C)c1ccccc1S(=O)(=O)c1cc(N)c2ncccc2c1[N+](=O)[O-]` [Example 31, 6-(2-tert-Butyl-benzenesulfonyl)-5-nitro-quinolin-8-ylamine]: 1400 nM.
For the compound “NPY: Neuropeptide Y (NPY), involved in the control of feeding in mammals; agonist in the cAMP assay”, in the assay with rats, the effect on feeding result is given as “dramatic increase in feeding”.
